# Key:
# PNPLA3 WT = biological target: T1, PNPLA3 WT (Homo sapiens, UniProt Q9NST1); assay: nanoDSF thermal shift, PNPLA3 WT protein; type: binding; settings: ligand 25 μM
# T1 construct: Full-length wild-type PNPLA3 (Q9NST1), mutant PNPLA3 (I148M), and PNPLA2 (Q96AD5) were cloned into the pVL1393 vector; Flag (N); made in house; host or cells: SF9 insect cells (baculovirus, pVL1393)
# T1 sequence (Q9NST1 1-481): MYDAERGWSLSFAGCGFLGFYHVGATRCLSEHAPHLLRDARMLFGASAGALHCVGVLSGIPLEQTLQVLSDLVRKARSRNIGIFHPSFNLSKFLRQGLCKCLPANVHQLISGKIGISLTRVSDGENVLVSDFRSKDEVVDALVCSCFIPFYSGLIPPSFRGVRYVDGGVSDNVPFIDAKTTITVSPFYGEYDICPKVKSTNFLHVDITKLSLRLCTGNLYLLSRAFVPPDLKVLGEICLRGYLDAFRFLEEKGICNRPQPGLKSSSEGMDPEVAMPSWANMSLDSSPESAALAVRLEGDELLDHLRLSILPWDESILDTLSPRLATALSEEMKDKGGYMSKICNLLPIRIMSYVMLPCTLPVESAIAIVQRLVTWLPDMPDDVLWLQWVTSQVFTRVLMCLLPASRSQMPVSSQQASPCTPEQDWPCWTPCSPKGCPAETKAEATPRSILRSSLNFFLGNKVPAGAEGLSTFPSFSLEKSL
# Description: (§1) To investigate the mode of action of NUV-244, we evaluated its direct binding to the PNPLA3 I148M protein using nano differential scanning fluorimetry (nanoDSF). In this assay, compounds that bind to a target protein can lead to thermal stabilization, preventing protein denaturation, which is reflected in a shift of the protein melting curve.
# (§2) Full-length wild-type PNPLA3 (Q9NST1), mutant PNPLA3 (I148M), and PNPLA2 (Q96AD5) were cloned into the pVL1393 vector with an N-terminal Flag-Tag. Proteins were expressed in SF9 cells infected at a multiplicity of infection (MOI) of 1 for 72 hours. Protein purification was performed using a two-step process. The first step involved affinity purification using M2 anti-Flag agarose beads. This was followed by gel filtration chromatography using a Superdex 200 column. Thermal melting experiments were carried out using a Prometheus NT.48 instrument (NanoTemper Technologies). Proteins were prepared in 20 mM Tris-HCl pH 7.4, 100 mM NaCl, 5 % Glycerol, 2 mM DTT and 0.2 mg/mL was used as a final concentration in 50 μL volume. For binding experiments, ligands were added to the mixture at a final concentration of 25 μM, DMSO was used as control. […] The intrinsic protein fluorescence at 330 and 350 nm was recorded. Data were analysed using Prometheus NT.48 software. Thermal shifts (ΔTm) were calculated, and Z-scores greater than 6 indicated robust stabilization. […]
# PNPLA2 = biological target: T2, PNPLA2 (Homo sapiens, UniProt Q96AD5); assay: nanoDSF thermal shift, PNPLA2 protein; type: binding; settings: ligand 25 μM
# T2 sequence (Q96AD5 1-504): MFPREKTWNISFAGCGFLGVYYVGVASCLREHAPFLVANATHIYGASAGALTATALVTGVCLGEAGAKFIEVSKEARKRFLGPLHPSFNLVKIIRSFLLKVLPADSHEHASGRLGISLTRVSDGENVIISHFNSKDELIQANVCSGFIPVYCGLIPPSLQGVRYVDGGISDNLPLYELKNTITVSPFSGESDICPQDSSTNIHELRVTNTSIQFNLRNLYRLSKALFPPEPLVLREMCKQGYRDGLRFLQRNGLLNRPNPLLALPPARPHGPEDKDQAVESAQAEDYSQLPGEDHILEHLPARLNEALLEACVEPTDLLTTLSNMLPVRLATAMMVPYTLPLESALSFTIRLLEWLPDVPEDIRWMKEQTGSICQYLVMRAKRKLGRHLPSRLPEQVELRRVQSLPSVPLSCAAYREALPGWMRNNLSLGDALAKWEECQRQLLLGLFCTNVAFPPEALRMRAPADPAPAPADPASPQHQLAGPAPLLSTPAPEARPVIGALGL
# Description: as §1, §2
# Huh7 cells = assay: Incucyte growth curves, Huh7; type: cell-based, human; settings: 1μM or 5μM; compared to DMSO
# Procedure: (§3) Huh7, Huh7 PNPLA3 I148M, Huh7 PNPLA3, Hep3b and LX-2 cells were seeded at a concentration of 1000 cells/well in 60 μl of growth medium on 384-well microtiter plates (Revvity, Waltham, MA, USA, PhenoPlate 384-well microplate, #6057308) and stored in a 37°C incubator with 5% CO2 and 95% humidity overnight. Next day cells were treated with DMSO as control (1% final concentration) or compound (1μM or 5μM final concentration) and cell density was recorded in the Incucyte® life cell imager (Sartorius, Göttingen, Germany) every 4 hours over a period of 5 days. Growth curves were generated by monitoring confluence over time. Proliferative capacity of PNPLA3 I148M-expressing cells was compared to control cells, and the restoration of proliferative fitness was analyzed.
# [1] = system: Huh7 cells expressing unmodified PNPLA3 I148M; assay: Incucyte growth curves, Huh7 expressing PNPLA3 I148M; type: cell-based, human; settings: 1μM or 5μM
# Procedure: as §3
smiles,measurement,setting,value
Cc1cccc(Cc2nc(C)c(C(=O)Nc3cc(O)ccc3Cl)s2)c1 [NUV-244],ΔTm PNPLA3 WT,PNPLA3 WT,7.02 °C
same,effect on melting curve of PNPLA2 protein,PNPLA2,did not affect the melting curve
same,"effect on proliferative capacity, Huh7",Huh7 cells,no effects
same,proliferative fitness of Huh7 cells expressing PNPLA3 I148M,[1],restored
